Experimental data: ChEMBL document CHEMBL1201862, “PubChem BioAssay data set” (2004)
The source made the active and inactive calls. Cut-off read from the data, not from the text of the source, for most assays here: actives have a measured AC50 and inactives only a lower limit.

Columns and labels:
[1] = molecular target: T1, Replicative DNA helicase DnaB (Mycobacterium tuberculosis, UniProt P9WMR3); experiment: DnaB intein splicing inhibitors, dose response, biochemical, cell-free fluorescence (AID 449749); type: functional
T1 sequence (P9WMR3 whole entry): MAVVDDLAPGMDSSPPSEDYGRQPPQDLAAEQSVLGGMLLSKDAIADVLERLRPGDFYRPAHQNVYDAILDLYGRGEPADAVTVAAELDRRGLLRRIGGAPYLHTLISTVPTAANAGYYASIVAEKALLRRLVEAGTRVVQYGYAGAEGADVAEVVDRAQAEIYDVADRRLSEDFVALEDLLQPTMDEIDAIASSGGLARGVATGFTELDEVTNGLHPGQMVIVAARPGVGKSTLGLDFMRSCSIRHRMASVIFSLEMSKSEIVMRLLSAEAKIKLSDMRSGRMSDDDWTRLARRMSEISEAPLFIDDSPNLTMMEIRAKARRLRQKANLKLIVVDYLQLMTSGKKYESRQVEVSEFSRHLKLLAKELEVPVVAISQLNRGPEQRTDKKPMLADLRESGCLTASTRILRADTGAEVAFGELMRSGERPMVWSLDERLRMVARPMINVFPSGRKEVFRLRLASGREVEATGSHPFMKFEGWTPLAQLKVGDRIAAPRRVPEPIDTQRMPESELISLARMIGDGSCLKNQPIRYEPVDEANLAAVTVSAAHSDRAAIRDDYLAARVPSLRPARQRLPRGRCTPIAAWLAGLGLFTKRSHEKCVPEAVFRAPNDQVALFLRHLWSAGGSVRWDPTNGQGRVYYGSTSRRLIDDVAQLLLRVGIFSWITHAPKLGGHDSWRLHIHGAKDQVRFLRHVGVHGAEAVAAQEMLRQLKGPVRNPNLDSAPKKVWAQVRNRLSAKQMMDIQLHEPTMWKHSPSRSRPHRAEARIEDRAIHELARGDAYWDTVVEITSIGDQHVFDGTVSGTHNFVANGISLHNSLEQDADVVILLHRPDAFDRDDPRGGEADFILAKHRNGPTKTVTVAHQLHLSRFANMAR

Protein RecA = molecular target: T2, Protein RecA (Mycobacterium tuberculosis, UniProt P9WHJ3); experiment: Fluorescence Cell-Free Homogeneous Dose Retest to Identify Inhibitors of RecA-Intein Splicing Activity. [Related pubchem assays (depositor defined):AID2097, AID2223, AID489010, AID492950]; type: functional
T2 sequence (P9WHJ3 whole entry): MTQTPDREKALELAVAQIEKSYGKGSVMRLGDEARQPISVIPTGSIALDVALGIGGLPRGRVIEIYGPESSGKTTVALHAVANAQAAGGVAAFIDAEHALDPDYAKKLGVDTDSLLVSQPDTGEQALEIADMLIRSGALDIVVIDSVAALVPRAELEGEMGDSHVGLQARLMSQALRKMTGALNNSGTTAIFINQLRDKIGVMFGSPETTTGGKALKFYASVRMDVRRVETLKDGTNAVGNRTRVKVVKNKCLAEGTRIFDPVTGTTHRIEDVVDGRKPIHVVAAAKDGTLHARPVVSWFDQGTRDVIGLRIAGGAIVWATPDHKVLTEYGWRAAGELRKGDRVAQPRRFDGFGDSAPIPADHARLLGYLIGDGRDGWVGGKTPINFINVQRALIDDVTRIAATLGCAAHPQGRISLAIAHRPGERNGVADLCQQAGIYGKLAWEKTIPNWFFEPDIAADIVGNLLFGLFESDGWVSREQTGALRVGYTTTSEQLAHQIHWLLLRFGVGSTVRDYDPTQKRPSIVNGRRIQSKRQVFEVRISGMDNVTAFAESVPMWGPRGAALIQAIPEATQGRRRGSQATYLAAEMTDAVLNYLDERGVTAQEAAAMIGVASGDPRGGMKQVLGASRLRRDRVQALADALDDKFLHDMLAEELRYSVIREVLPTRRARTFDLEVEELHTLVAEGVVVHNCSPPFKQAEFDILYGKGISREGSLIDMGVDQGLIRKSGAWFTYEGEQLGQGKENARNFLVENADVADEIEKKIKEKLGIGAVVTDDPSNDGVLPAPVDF

[2] = molecular target: T3, Histone-lysine N-methyltransferase NSD2 (Homo sapiens, UniProt O96028); type: biochemical
T3 sequence (O96028 whole entry): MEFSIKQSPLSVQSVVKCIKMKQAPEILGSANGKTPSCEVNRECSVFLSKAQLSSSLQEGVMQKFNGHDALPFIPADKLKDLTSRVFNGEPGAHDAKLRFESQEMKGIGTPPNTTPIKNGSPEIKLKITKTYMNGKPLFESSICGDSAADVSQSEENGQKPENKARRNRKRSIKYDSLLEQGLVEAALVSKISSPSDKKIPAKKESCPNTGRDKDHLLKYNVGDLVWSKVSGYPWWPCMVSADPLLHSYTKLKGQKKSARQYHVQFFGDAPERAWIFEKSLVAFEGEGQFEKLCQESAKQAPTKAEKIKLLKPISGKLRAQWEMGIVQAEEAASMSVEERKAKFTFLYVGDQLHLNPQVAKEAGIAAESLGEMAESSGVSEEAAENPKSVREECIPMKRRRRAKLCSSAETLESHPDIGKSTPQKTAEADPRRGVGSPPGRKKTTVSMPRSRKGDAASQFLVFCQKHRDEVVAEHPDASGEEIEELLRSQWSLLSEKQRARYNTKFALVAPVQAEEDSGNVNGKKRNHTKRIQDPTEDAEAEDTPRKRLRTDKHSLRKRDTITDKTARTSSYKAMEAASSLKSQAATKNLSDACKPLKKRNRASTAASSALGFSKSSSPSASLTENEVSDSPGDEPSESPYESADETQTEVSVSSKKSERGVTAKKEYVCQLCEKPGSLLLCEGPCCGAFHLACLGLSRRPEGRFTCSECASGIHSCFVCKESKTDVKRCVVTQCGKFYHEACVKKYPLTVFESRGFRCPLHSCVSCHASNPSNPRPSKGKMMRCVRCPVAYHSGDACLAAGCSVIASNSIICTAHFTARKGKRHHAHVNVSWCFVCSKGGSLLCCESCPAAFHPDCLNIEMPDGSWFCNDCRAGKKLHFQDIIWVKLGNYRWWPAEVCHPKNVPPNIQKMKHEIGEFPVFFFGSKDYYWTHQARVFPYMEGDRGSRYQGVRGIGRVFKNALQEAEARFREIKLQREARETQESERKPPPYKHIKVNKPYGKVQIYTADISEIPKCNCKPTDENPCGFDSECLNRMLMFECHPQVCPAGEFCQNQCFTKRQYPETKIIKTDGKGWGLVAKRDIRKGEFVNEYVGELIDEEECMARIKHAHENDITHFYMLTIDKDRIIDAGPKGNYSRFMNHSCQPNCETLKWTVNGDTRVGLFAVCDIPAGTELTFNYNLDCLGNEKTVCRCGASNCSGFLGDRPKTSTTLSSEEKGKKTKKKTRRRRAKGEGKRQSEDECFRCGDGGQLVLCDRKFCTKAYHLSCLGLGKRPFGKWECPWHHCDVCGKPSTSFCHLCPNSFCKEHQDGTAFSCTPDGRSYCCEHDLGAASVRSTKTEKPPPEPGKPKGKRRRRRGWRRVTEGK

N#Cc1c(N2CCCCC2)nc(N)c2c(N)nc(SCC(=O)O)cc12
AC50 [1]: 24.9 µM (active)
EC50 (Protein RecA): 9.14 µM (active)

CC1(C)Cc2ccccc2C2=NNC(=O)C2=N1
AC50 [2]: 16.4 µM (active)
AC50 [1]: 0.343 µM (active)
EC50 (Protein RecA): 1.17 µM (active)

CCc1ccc(S(=O)(=O)Nc2cc(SCC(=O)O)c(O)c3ccccc23)cc1
AC50 [2]: 4.83 µM (active)
AC50 [1]: 0.77 µM (active)
EC50 (Protein RecA): 0.217 µM (active)

O=[N+]([O-])c1ccc(Sc2cccc[n+]2[O-])c2nonc12
AC50 [2]: 5.12 µM (active)
AC50 [1]: 5.25 µM (active)
EC50 (Protein RecA): 4.93 µM (active)

Oc1c(Cl)cc(Cl)c(Cl)c1Cc1c(O)c(Cl)cc(Cl)c1Cl [HEXACHLOROPHENE]
AC50 [1]: 1.81 µM (active)
EC50 (Protein RecA): 7.27 µM (active)
